In one series the test system is major depression. Particulars: subsequent clinical trials; cited from earlier work.
For another series, the system named is L5 SNL rats. Briefly: L5 SNL model of neuropathic pain, tactile allodynia (von Frey). It counts as in vivo, rat. The settings on record: for antiallodynic effect over time, oral: 60 mg/kg PO.
The test system of series [1] is noradrenergic, histaminergic and cholinergic receptors. Particulars: published report; cited from earlier work.
Series [2] relates to rat hindpaw incisional model. The series is described as follows: Rat hindpaw incisional pain model, tactile allodynia. Format: in vivo. Particulars: for antiallodynic effect over time: tested 30, 60, 120, 240 minutes. As for the experimental part: Protocol. A time course experiment was performed with beloxepin in the hindpaw incision model. […] Protocol. […] Protocol.
In series [3] the target is T1, CYP2D6 (Homo sapiens, UniProt P10635).
T1 construct: purchased BD Bioscience
Briefly: CYP2D6 inhibition (dextromethorphan O-demethylation) in human hepatic microsomes. Format: in vitro ADME. The settings on record: pooled male human hepatic microsomes. The protocol: The 200 μL incubations were conducted in duplicate in 0.1 M potassium phosphate buffer (pH 7.4) with 0.02 mg of microsomal protein, 3 mM MgCl2, 1 mM EDTA and 7.5 μM of the probe substrate dextromethorphan in a 96-well polypropylene plate maintained at 37° C. After a 3-minute pre-incubation, the reaction was initiated with the addition of 2 mM NADPH. Upon completion of the 10-minute incubation period, aliquots of 100 μL were removed and added to a new plate containing 100 μL of internal standard in acidified acetonitrile to stop the reaction. The quenched samples were vortexed and the precipitated protein was removed by centrifugation. Supernatant aliquots of 100 μL were transferred to LC vials and 5 μL were injected onto the HPLC system for LC/MS/MS analysis of the metabolite dextrorphan. Standards and quality control samples were similarly prepared using authentic dextrorphan standards.
Dexthorphan concentrations were determined by high performance liquid chromatography with tandem mass spectrometric detection (LC/MS/MS) after protein precipitation with acidified acetonitrile containing internal standard. Separations were performed with a Flux Rheos 2000 quaternary pump (Leap Technologies, Inc., Carrboro, N.C.) using an XTerra® MS C18, 3.5 μm, 4.6×50 mm column (Waters Corporation, Milford, Mass.). […]

For series [4], the system named is patients hospitalized for depression. The settings on record: phase IIA; cited from earlier work.
Series [5] deals with T1, CYP2D6. Briefly: CYP2D6 inhibition screening, recombinant enzyme, MAMC substrate. It counts as in vitro ADME. As for the experimental part: Protocol. […] The source of the enzyme was microsomes containing human recombinant CYP2D6 obtained from BD Bioscience. Conversion of MAMC to 7-hydroxy-4-(aminomethyl)coumarin was measured using a PerkinElmer Fusion with a 390 nm excitation filter and a 460 nm emission filter.

The conditions of series [6]: cited from earlier work.

We go through 1 compound from patent US7829576B2 (priority 2008, dated 2010).

pIC50: −log10 of the molar value.

T1 sequence (P10635 whole entry): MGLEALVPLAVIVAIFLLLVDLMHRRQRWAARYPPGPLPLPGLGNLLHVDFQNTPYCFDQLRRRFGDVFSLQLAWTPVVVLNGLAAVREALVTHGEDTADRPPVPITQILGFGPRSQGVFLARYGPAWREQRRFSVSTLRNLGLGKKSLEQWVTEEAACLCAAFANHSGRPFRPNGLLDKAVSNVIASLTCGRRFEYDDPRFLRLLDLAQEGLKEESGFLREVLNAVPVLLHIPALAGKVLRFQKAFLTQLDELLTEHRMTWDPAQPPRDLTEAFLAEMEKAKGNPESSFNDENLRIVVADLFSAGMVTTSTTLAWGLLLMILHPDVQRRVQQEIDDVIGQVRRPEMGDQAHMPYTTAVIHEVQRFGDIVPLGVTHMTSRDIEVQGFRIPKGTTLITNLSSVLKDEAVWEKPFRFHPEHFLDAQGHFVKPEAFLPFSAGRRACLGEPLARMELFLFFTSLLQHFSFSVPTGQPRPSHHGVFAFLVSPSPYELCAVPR

As usually defined, the pIC50 is −log10 of the IC50, conventionally taken in molar units. What is called inhibition is the relative decrease from the control value, in per cent. As for `Cc1cccc2c1Oc1ccccc1C1(O)CCN(C)CC21` (racemic) [beloxepin, cis-1,2,3,4,4a,13b-hexahydro-2,10-dimethyldiben-[2,3:6,7]oxepino[4,5c]pyridine-4a-ol]], the “efficacy for the treatment of major depression” value with major depression is given as “insufficient efficacy”. Also, in the series with L5 SNL rats (30 mg/kg IP (FIG. 2)), the “tactile antiallodynic effect, % of that observed with sham-operated animals” value is given as roughly 100%. Besides, the observed mean threshold entry with L5 SNL rats (30 mg/kg IP (FIG. 3)) is on record as “approximately 15 g”. The “maximal antiallodynic effect, % of the threshold of vehicle-treated rats” value in the series with L5 SNL rats (30 mg/kg IP, 14 days post surgery, 30 min post treatment (FIG. 1)) was found to be 829%. Also, the “antiallodynic effect over time” value in the series on L5 SNL rats (30 mg/kg IP, 14 days post surgery, tested 30, 60, 120, 240 min) was “significant antiallodynia effects at the 30, 60 and 120 min time points”; in series [2] (3 mg/kg IV) it was “significant antiallodynic effect at the 30 and 120 minute time points”; in series [2] (30 mg/kg IP), “significant antiallodynic effect at all four time points”; in series [2] (60 mg/kg PO), “significant antiallodynic effect at all four time points”. In the series with L5 SNL rats (30 mg/kg IP, 16 days post surgery, 30 min post treatment (FIG. 2)), the “antiallodynic effect, % of the threshold for vehicle-treated rats” value is 852%. Moreover, the “antiallodynic effect over time, oral” value in the series with L5 SNL rats (7 days post surgery, tested 30, 60, 120, 240 min (FIG. 10)) was “significant antiallodynic effects at all four time points”; in the series with L5 SNL rats (8 days post surgery, tested 30, 60, 120, 240 min (FIG. 4)), “significant and robust antiallodynic effects at the 30 and 60 min time points”. In the series on L5 SNL rats (each 30 mg/kg IP (FIG. 5)), the “antiallodynic effect compared with duloxetine, amitriptyline, reboxetine” value is “the most effective of the compounds tested”. The “affinity for noradrenergic, histaminergic and cholinergic receptors” value in series [1] was “no or very weak affinity”. Also, the “maximum hindpaw withdrawal threshold” value in series [2] (3 mg/kg IV, 24 hours post-surgery, 30 minute time point (FIG. 14)) is given as roughly 21 grams; in series [2] (30 mg/kg IP, 24 hours post surgery, 30 minute time point (FIG. 12)) it was roughly 29 grams; in series [2] (60 mg/kg PO, 24 hours post-surgery, 30 and 60 minute time points (FIG. 13)), roughly 24 grams. For the same compound, the “maximum threshold, % of the threshold value for vehicle treated rats” value in series [2] (30 mg/kg IP, 30 minute time point (FIG. 12)) is 544%. Also, the “3 mg/kg IV dose lower than a dose that produced a significant respiratory or cardiovascular side effect” value in series [2] (IV, rats) worked out at 10 fold. In addition, the negative-log IC50 (pIC50) at CYP2D6 [3] is 4.50; at CYP2D6 [5] (human recombinant CYP2D6 microsomes, read-out: CYP2D6 IC50 (initial screening, MAMC substrate)), 6.27. Moreover, the “fraction of patients with a moderate to good response (HAMD score reduction)” value in series [4] is “⅔”. The inhibition at 10 µM on CYP2D6 [5] (human, probe 7-methoxy-4-(aminomethyl)-coumarin (MAMC)) stood at 97%. In series [6] (healthy normal subjects, 50 to 800 mg), the “t1/2, steady state” value was 12 to 14 h. Also, the “adverse effects in healthy volunteers” value in series [6] (up to 800 mg/day) is reported as “No important adverse effects were observed”.
